Source: patent publication US6358736B1, “Method for increasing the antigen presenting ability of leukemia cells” (The United States of America as represented by the …, priority 1995, dated 2002)
“Also recorded” adds a separate entry of the source.

B1: rhIL-12: recombinant human IL-12 (protein, UniProt P29459 23-219; P29460 23-328, looked up)
Interleukin-12 subunit alpha: RNLPVATPDPGMFPCLHHSQNLLRAVSNMLQKARQTLEFYPCTSEEIDHEDITKDKTSTVEACLPLELTKNESCLNSRETSFITNGSCLASRKTSFMMALCLSSIYEDLKMYQVEFKTMNAKLLMDPKRQIFLDQNMLAVIDELMQALNFNSETVPQKSSLEEPDFYKTKIKLCILLHAFRIRAVTIDRVMSYLNAS
Interleukin-12 subunit beta: IWELKKDVYVVELDWYPDAPGEMVVLTCDTPEEDGITWTLDQSSEVLGSGKTLTIQVKEFGDAGQYTCHKGGEVLSHSLLLLHKKEDGIWSTDILKDQKEPKNKTFLRCEAKNYSGRFTCWWLTTISTDLTFSVKSSRGSSDPQGVTCGAATLSAERVRGDNKEYEYSVECQEDSACPAAEESLPIEVMVDAVHKLKYENYTSSFFIRDIIKPDPPKNLQLKPLKNSRQVEVSWEYPDTWSTPHSYFSLTFCVQVQGKSKREKKDRVFTDKTSATVICRKNASISVRAQDRYYSSSWSEWASVPCS
B2: RANTES: chemokine inducing monocyte chemotaxis (protein, UniProt P13501 24-91, looked up)
C-C motif chemokine 5: SPYSSDTTPCCFAYIARPLPRAHIKEYFYTSGKCSNPAVVFVTRKNRQVCANPEKKWVREYINSLEMS
B3: rhIFN-gamma: recombinant human interferon gamma (protein, UniProt P01579 24-161, looked up)
Interferon gamma: QDPYVKEAENLKKYFNAGHSDVADNGTLFLGILKNWKEESDRKIMQSQIVSFYFKLFKNFKDDQSIQKSVETIKEDMNVKFFNSNKKKRDDFEKLTNYSVTDLNVQRKAIHELIQVMAELSPAAKTGKRKRSQMLFRG
B4: rhIL-10: recombinant human IL-10 (protein, UniProt P22301 19-178, looked up)
Interleukin-10: SPGQGTQSENSCTHFPGNLPNMLRDLRDAFSRVKTFFQMKDQLDNLLLKESLLEDFKGYLGCQALSEMIQFYLEEVMPQAENQDPDIKAHVNSLGENLKTLRLRLRRCHRFLPCENKSKAVEQVKNAFNKLQEKGIYKAMSEFDIFINYIEAYMTMKIRN
B5: MIP-1-alpha: chemokine inducing monocyte chemotaxis (protein, UniProt P10147 24-92, looked up)
C-C motif chemokine 3: SLAADTPTACCFSYTSRQIPQNFIADYFETSSQCSKPGVIFLTKRSRQVCADPSEEWVQKYVSDLELSA
B6: rhIL-1 alpha: recombinant human IL-1 alpha (protein, UniProt P01583 113-271, looked up)
Interleukin-1 alpha: SAPFSFLSNVKYNFMRIIKYEFILNDALNQSIIRANDQYLTAAALHNLDEAVKFDMGAYKSSKDDAKITVILRISKTQLYVTAQDEDQPVLLKEMPEIPKTITGSETNLLFFWETHGTKNYFTSVAHPNLFIATKQDYWVCLAGGPPSITDFQILENQA

Legend:
[1] = test system: human peripheral blood monocytes; experiment: FACS analysis of cell surface markers on cultured peripheral blood monocytes; type: cell-based; conditions: for effect of agent on ionophore-induced activated myeloid dendritic cell phenotype: added to calcium ionophore treatment; for induction of activated myeloid dendritic cell phenotype (CD80 and CD83 expression): 20-40 hours, wide dose range, alone or in combination
HL-60 cells [2] = experiment: FACS analysis of cell surface markers on HL-60 cells; type: cell-based, human
Description: Calcium was removed from cultured cells by two methods.
The second method involved washing the cells extensively in calcium-free RPMI medium, and culturing them in the same calcium-free medium supplemented with serum that had been dialyzed against calcium-free phosphate-buffered saline.
The calmodulin kinase inhibitors KN-62 (20 uM) or KT-5926 (1 uM) was added to HL-60 cells in the presence of 188 ng/ml A23187. Twenty four hours later the level of CD80 was analyzed.
Thapsigargin was added to cultured human peripheral blood monocytes and HL-60 cells in concentrations ranging from 0 to 1000 nM. Cells were harvested 24 hours later and evaluated for the acquisition of ADC immunophenotypic characteristics by FACS analysis.
Cells were harvested after three days, irradiated (3000R), then FACS analyzed or cocultured in graded numbers with freshly prepared naive (CD45RO negative) T lymphocytes. Allosensitization was assessed by pulsing at day 4 with ^3H-TdR and harvesting 18 hours later.

HL-60 cells [3] = experiment: as above; type: cell-based, human; remark: listed apart in the source
[4] = KT5926 1 uM, 750 ng/ml ionophore, 24 hours

Row | Molecule | effect of agent on ionophore-induced activated myeloid dendritic cell phenotype [1] | further results
1 | C[C@H]1O[C@@H](n2cnc3c(N)ncnc32)C[C@@H]1O [2′5′-DDA] | enhanced CD14 downregulation and upregulation of costimulatory, MHC, and other molecule expression | 
2 | O=C(O)CN(CCN(CC(=O)O)CC(=O)O)CC(=O)O [EDTA] |  | suppression of ionophore-induced CD80/CD86 (HL-60 cells [2]; 0.25 uM EDTA): suppressive effects rapidly diminished; suppression of ionophore-induced CD80/CD86 (HL-60 cells [2]; 0.5 uM EDTA): Almost identical suppression; diminution of ionophore-induced CD86 levels (HL-60 cells [2]; 1 uM EDTA): more than 85%; suppression of ionophore-induced CD80 upregulation (HL-60 cells [2]; 1 uM EDTA): 100%
3 | CN([C@@H](Cc1ccc(OS(=O)(=O)c2cccc3cnccc23)cc1)C(=O)N1CCN(c2ccccc2)CC1)S(=O)(=O)c1cccc2cnccc12 [KN-62] | inhibited at least some of the ionophore's effects | 
4 | COC(=O)[C@@]1(OC)C[C@H]2O[C@]1(C)n1c3ccccc3c3c4c(c5c6ccccc6n2c5c31)C(=O)N(C)C4 [KT5823] | inhibited at least some of the ionophore's effects | 
5 | CCCOc1ccc2c(c1)c1c3c(c4c5ccccc5n5c4c1n2[C@H]1C[C@](O)(C(=O)OC)[C@]5(C)O1)CNC3=O [KT-5926] | inhibited at least some of the ionophore's effects | suppression of CD40 [1, 4]: > 50%; suppression of CD80 [1, 4]: > 60%; suppression of CD86 [1, 4]: about 50%; suppression of HLA-ABC [1, 4]: over 40%; suppression of HLA-DR [1, 4]: modest, but detectable suppression
6 | CCCCC[C@H](O)/C=C/[C@H]1[C@H](O)CC(=O)[C@@H]1C/C=C\CCCC(=O)O [PGE2] | inhibited at least some of the ionophore's effects | 
7 | NCCCCCCNS(=O)(=O)c1cccc2c(Cl)cccc12 [W-7] | inhibited at least some of the ionophore's effects | inhibition of ionophore-induced CD80 expression (HL-60 cells [3]; W-7 50 uM (optimal), A23187 188 ng/ml, 24 hours): over 75%
8 | C[C@@H]1[C@H](O)[C@@H](C)/C=C/C=C/C=C/C=C/C=C/C=C/C=C/[C@H](O[C@@H]2O[C@H](C)[C@@H](O)[C@H](N)[C@@H]2O)C[C@@H]2O[C@](O)(C[C@@H](O)C[C@@H](O)[C@H](O)CC[C@@H](O)C[C@@H](O)CC(=O)O[C@H]1C)C[C@H](O)[C@H]2C(=O)O [amphotericin B] | enhanced the induction of an activated myeloid dendritic cell phenotype; also recorded: enhance calcium ionophore's effect | effect of agent alone on monocytes ([1]; without ionophore): no or little effect alone
9 | CCCC(=O)Nc1ncnc2c1ncn2[C@@H]1O[C@@H]2COP(=O)(O)O[C@H]2[C@H]1OC(=O)CCC [dibutryl cAMP] | inhibited at least some of the ionophore's effects | 
10 | CCCC(=O)Nc1nc2c(ncn2C2O[C@H]3COP(=O)(O)O[C@@H]3[C@@H]2OC(=O)CCC)c(=O)[nH]1 (stereo partly drawn) [dibutryl cGMP] | enhanced CD14 downregulation and upregulation of costimulatory, MHC, and other molecule expression | 
11 | CO[C@H]1[C@@H](OC)C[C@H](C)[C@@H](OC)C2=CC(=O)C=C(NC(=O)/C(C)=C/C=C\[C@H](OC)[C@@H](OC(N)=O)/C(C)=C/[C@@H]1C)C2=O [herbimycin A] | inhibited at least some of the ionophore's effects | 
12 | C[C@H](CCC(=O)O)C[C@H](C)C[C@H](C)C(=O)/C=C(\O)[C@H](C)C[C@H](C)C/C=C/[C@@H](C)[C@@H](O)[C@@H](C)[C@@H](O)C[C@@H]1CC[C@@](C)([C@H]2CC[C@@](C)([C@@H](C)O)O2)O1 [ionomycin] |  | activation and dendritic cell phenotypic conversion of pooled monocyte plus DC fractions ([1]; added at the beginning of a 24-48 hr culture period): uniform activation and dendritic cell phenotypic conversion
13 | C=C1[C@@H](O)[C@@H]2O[C@]3(CC[C@H](/C=C/[C@@H](C)[C@@H]4CC(C)=C[C@@]5(O[C@H](C[C@@](C)(O)C(=O)O)CC[C@H]5O)O4)O3)CC[C@H]2O[C@@H]1[C@@H](O)C[C@H](C)[C@H]1O[C@@]2(CCCCO2)CC[C@H]1C [okadaic acid] | enhanced CD14 downregulation and upregulation of costimulatory, MHC, and other molecule expression | 
14 | C[C@]12C=CC(=O)C=C1CC[C@@H]1[C@@H]2[C@@H](O)C[C@@]2(C)[C@H]1CC[C@]2(O)C(=O)CO [prednisolone] | inhibited at least some of the ionophore's effects | 
15 | CN[C@@H]1C[C@H]2O[C@@](C)([C@@H]1OC)n1c3ccccc3c3c4c(c5c6ccccc6n2c5c31)C(=O)NC4 [staurosporine] | enhanced CD14 downregulation and upregulation of costimulatory, MHC, and other molecule expression | 
16 | MCP-1: chemokine inducing monocyte chemotaxis |  | induction of activated myeloid dendritic cell phenotype (CD80 and CD83 expression) [1]: do not induce monocytes to express the phenotype of activated myeloid dendritic cells
17 | rhGM-CSF: recombinant human GM-CSF | enhanced CD14 downregulation and upregulation of costimulatory, MHC, and other molecule expression | effect on HL-60 phenotype (HL-60 cells [3]; rhGM-CSF alone): little effect alone
18 | rhIL-4: recombinant human IL-4 | enhanced CD14 downregulation and upregulation of costimulatory, MHC, and other molecule expression | 
19 | rhIL-6: recombinant human IL-6 | little or no effect | 
20 | trifluoperazine dimaleate [TpD] | inhibited at least some of the ionophore's effects | inhibition of ionophore-induced up-regulation of CD80 (HL-60 cells [3]; TpD 10 uM (optimal), A23187 188 ng/ml, 24 hours): over 90%; effect on CD40, HLA-DR and HLA-ABC ([1]; TpD): significant suppressive effects; inhibition of CD80 ([1]; TpD 10 uM (optimal)): over 50%; inhibition of CD86 ([1]; TpD 10 uM (optimal)): over 50%
21 | B1 | enhanced CD14 downregulation and upregulation of costimulatory, MHC, and other molecule expression | 
22 | B2 |  | induction of activated myeloid dendritic cell phenotype (CD80 and CD83 expression) [1]: do not induce monocytes to express the phenotype of activated myeloid dendritic cells
23 | B3 | enhanced CD14 downregulation and upregulation of costimulatory, MHC, and other molecule expression | HLA-DR expression (HL-60 cells [2]; agent alone): induces HLA-DR expression
24 | B4 | inhibited at least some of the ionophore's effects | 
25 | B5 |  | induction of activated myeloid dendritic cell phenotype (CD80 and CD83 expression) [1]: do not induce monocytes to express the phenotype of activated myeloid dendritic cells
26 | B6 | little or no effect | 
